From patent US20120315658A1, “AMELIORATION OF METABOLIC SYNDROME USING PHYSIOLOGICAL FUNCTIONS OF SPHINGOMYELIN SYNTHASE SMS2, OR SCREENING METHODS FOR AMELIORATING AGENTS” (Shionogi & Co., Ltd., priority 2009, published 2012)

System: ZS2/SMS2 cells
Assay: Me beta CD sensitivity test with Myriocin, viable cell number by WST-8
Format: cell-based, mouse
Details: for effect of added lipid on cell growth inhibitory effects caused by Myriocin: Myriocin + ceramide (10 microM) or sphingomyelin (15 microM)
Description: 1×10^6 MEF cells are washed, and resuspended in 1 ml of serum-free RPMI 1640 medium, and treated with an appropriate concentration of Me beta CD, and cultured in 5% CO2, 37 degrees Celsius for five minutes. After 2 ml of normal medium containing myriocin are added thereto, and the cells are cultured for additional 12 hours. A reagent for measuring viable cell number containing WST-8 (Nakalai Tesque) may be used to measure survival rate of the cells.
More specifically, ZS2/SMS2 cells prepared in Example 2 are placed in 48-well plate dish at 5000 cells/0.2 ml/well (N=3). For cell culture, 0.3% FCS/OPTIPRO SFM (GIBCO) was used. In this case, Myriocin (Final concentration 5 microM) is added, or alternatively, Myriocin+ceramide (10 microM) or Myriocin+sphingomyelin (15 microM) were added thereto. Me beta CD was added at the final concentration of 2 mM, and further cultured in 5% CO2, 37 degrees Celsius for sixteen hours. A reagent for measuring viable cell number containing WST-8 (DOJINDO) was added at 10 microliter/well and further cultured in 5% CO2, 37 degrees Celsius for one hour (WST assay). The viable cell numbers were counted according to the protocol. Y axis represents a numerical value when the average value is deemed to be 100% amongst the cases in the presence and absence of Myriocin, when Me beta CD is not placed therein.

CCCCCCC(=O)CCCCCC/C=C/C[C@@H](O)[C@H](O)[C@@](N)(CO)C(=O)O [Myriocin]
further reduction of cell growth by addition of Myriocin (2 mM Me beta CD, sixteen hours, Myriocin printed as 2 mM): about 20% | viable cell number, presence versus absence of Myriocin (Me beta CD not placed therein, Myriocin 5 microM): not significant difference

ceramide
effect of added lipid on cell growth inhibitory effects caused by Myriocin (2 mM Me beta CD): almost completely inhibited the cell growth inhibitory effects caused by Myriocin

methyl-beta-cyclodextrin [Me beta CD]
reduction of cell growth by Me beta CD (2 mM Me beta CD, sixteen hours, no Myriocin): about 50%

sphingomyelin [SM]
effect of added lipid on cell growth inhibitory effects caused by Myriocin (2 mM Me beta CD): almost completely inhibited the cell growth inhibitory effects caused by Myriocin
